From US11926645B2, “Compounds and methods for treatment of viral infections” (priority 2020, dated 2024)
pEC50: −log10 of the molar value. Like-named read-outs stand apart in the source and are kept apart here.

What was measured:
Format in all cases: cell-based
[1] = system: RSV strain A2; assay: RSV antiviral assay (Hep2), EC50-Hep2/B1-384; settings: human respiratory syncytial virus, HEp-2, 96 h; Hep2 cells, 4 days, Cell-Titer Glo
[2] = system: SARS-CoV-2-Nluc viruses; assay: microbe, parasite or virus in culture
[3] = in vitro; settings: human
Description: The cytotoxicity of compounds was determined in A549-hACE2 cells in the following manner. Compounds (200 nL) were spotted onto 384-well Grenier plates prior to seeding 5000 A549-hACE2 cells/well in a volume of 40 μL culture medium. The plates were incubated at 37° C. for 48 hours with 5% CO2. On day 2, 40 μL of CellTiter-Glo (Promega) was added and mixed 5 times.

[4] = system: RSV-Fluc (Respiratory Syncytial virus strain A2 containing the firefly luciferase reporter); assay: microbe, parasite or virus in culture; settings: human respiratory syncytial virus, 72 h, NHBE cells, three days
[5] = Severe acute respiratory syndrome coronavirus 2, 48 h; read-out: SARS-CoV2 EC50
[6] = Severe acute respiratory syndrome coronavirus 2, 48 h, read-out: SARS-CoV2 EC50

SMILES	pEC50 [1]	pEC50 [2, 5]	CC50 at 48 h [3] [µM]	pEC50 [4]	pEC50 [2, 6]	CC50 ([3]; 48 hours, CellTiter-Glo, read-out: A549-hACE2 CC50) [µM]
CC(=O)OC[C@H]1O[C@@](C#N)(c2ccc3c(N)ncnn23)[C@H](OC(C)=O)[C@@H]1OC(C)=O [Compound 2, (2R,3R,4R,5R)-5-(acetoxymethyl)-2-(4-aminopyrrolo[2,1-f][1,2,4]triazin-7-yl)-2-cyanotetrahydrofuran-3,4-diyl diacetate]	6.27	5.72	> 50	6.54	–	–
CCC(=O)OC[C@H]1O[C@@](C#N)(c2ccc3c(N)ncnn23)[C@H](OC(=O)CC)[C@@H]1OC(=O)CC [Compound 3, (2R,3R,4R,5R)-2-(4-aminopyrrolo[2,1-f][1,2,4]triazin-7-yl)-2-cyano-5-((propionyloxy)methyl)tetrahydrofuran-3,4-diyl dipropionate]	6.37	5.51	> 100	6.08	–	–
N#C[C@@]1(c2ccc3c(N)ncnn23)O[C@H](CO)[C@H]2OC(c3ccccc3)O[C@H]21 (stereo partly drawn) [Compound 4, (3aR,4R,6R,6aR)-4-(4-aminopyrrolo[2,1-f][1,2,4]triazin-7-yl)-6-(hydroxymethyl)-2-phenyltetrahydrofuro[3,4-d][1,3]dioxole-4-carbonitrile]	4.58	< 5.00	> 100	–	–	–
CC(C)C(=O)OC[C@H]1O[C@@](C#N)(c2ccc3c(N)ncnn23)[C@@H]2OC(c3ccccc3)O[C@@H]21 (stereo partly drawn) [Compound 5, ((3aR,4R,6R,6aR)-6-(4-aminopyrrolo[2,1-f][1,2,4]triazin-7-yl)-6-cyano-2-phenyltetrahydrofuro[3,4-d][1,3]dioxol-4-yl)methyl isobutyrate]	4.88	< 5.00	> 100	–	–	–
CC(C)[C@H](N)C(=O)OC[C@H]1O[C@@](C#N)(c2ccc3c(N)ncnn23)[C@@H]2OC(c3ccccc3)O[C@@H]21 (stereo partly drawn) [Compound 6, ((3aR,4R,6R,6aR)-6-(4-aminopyrrolo[2,1-f][1,2,4]triazin-7-yl)-6-cyano-2-phenyltetrahydrofuro[3,4-d][1,3]dioxol-4-yl)methyl L-valinate]	4.63	< 5.00	> 71.2	–	–	–
CC(C)(N)C(=O)OC[C@H]1O[C@@](C#N)(c2ccc3c(N)ncnn23)[C@H](O)[C@@H]1O [Compound 7, ((2R,3S,4R,5R)-5-(4-aminopyrrolo[2,1-f][1,2,4]triazin-7-yl)-5-cyano-3,4-dihydroxytetrahydrofuran-2-yl)methyl 2-amino-2-methylpropanoate]	6.07	5.51	> 50	–	–	–
CC(C)[C@H](N)C(=O)OC[C@H]1O[C@@](C#N)(c2ccc3c(N)ncnn23)[C@H](O)[C@@H]1O [Compound 8, ((2R,3S,4R,5R)-5-(4-aminopyrrolo[2,1-f][1,2,4]triazin-7-yl)-5-cyano-3,4-dihydroxytetrahydrofuran-2-yl)methyl L-valinate]	6.04	5.57	> 100	< 5.30	–	–
CC(C)[C@@H](N)C(=O)OC[C@H]1O[C@@](C#N)(c2ccc3c(N)ncnn23)[C@H](O)[C@@H]1O [Compound 9, ((2R,3S,4R,5R)-5-(4-aminopyrrolo[2,1-f][1,2,4]triazin-7-yl)-5-cyano-3,4-dihydroxytetrahydrofuran-2-yl)methyl D-valinate]	6.10	5.62	> 50	–	–	–
N#C[C@@]1(c2ccc3c(N)ncnn23)O[C@H](COC(=O)[C@@H](N)Cc2ccccc2)[C@@H](O)[C@H]1O [Compound 10, ((2R,3S,4R,5R)-5-(4-aminopyrrolo[2,1-f][1,2,4]triazin-7-yl)-5-cyano-3,4-dihydroxytetrahydrofuran-2-yl)methyl L-phenylalaninate]	5.92	5.66	> 100	–	–	–
CC(C)C(=O)O[C@H]1[C@@H](OC(=O)C(C)C)[C@](C#N)(c2ccc3c(N)ncnn23)O[C@@H]1COC(=O)C(C)(C)N [Compound 11, (2R,3R,4R,5R)-5-(((2-amino-2-methylpropanoyl)oxy)methyl)-2-(4-aminopyrrolo[2,1-f][1,2,4]triazin-7-yl)-2-cyanotetrahydrofuran-3,4-diyl bis(2-methylpropanoate)]	6.41	5.59	> 100	6.52	–	–
CC(C)C(=O)O[C@H]1[C@@H](OC(=O)C(C)C)[C@](C#N)(c2ccc3c(N)ncnn23)O[C@@H]1COC(=O)[C@@H](N)C(C)C [Compound 12, (2R,3R,4R,5R)-5-(((L-valyl)oxy)methyl)-2-(4-aminopyrrolo[2,1-f][1,2,4]triazin-7-yl)-2-cyanotetrahydrofuran-3,4-diylbis(2-methylpropanoate)]	6.38	5.48	> 50	6.77	–	–
N#C[C@@]1(c2ccc3c(N)ncnn23)O[C@H](CO)[C@H]2OC(=O)O[C@H]21 [Compound 13, (3aR,4R,6R,6aR)-4-(4-aminopyrrolo[2,1-f][1,2,4]triazin-7-yl)-6-(hydroxymethyl)-2-oxotetrahydrofuro[3,4-d][1,3]dioxole-4-carbonitrile]	6.30	5.89	> 50	–	–	–
N#C[C@@]1(c2ccc3c(N)ncnn23)O[C@H](COC(=O)C[C@@H](N)Cc2ccccc2)[C@@H](O)[C@H]1O [Compound 14, ((2R,3S,4R,5R)-5-(4-aminopyrrolo[2,1-f][1,2,4]triazin-7-yl)-5-cyano-3,4-dihydroxytetrahydrofuran-2-yl)methyl (S)-3-amino-4-phenylbutanoate]	6.08	5.57	> 50	–	–	–
CC(C)CC(=O)OC[C@H]1O[C@@](C#N)(c2ccc3c(N)ncnn23)[C@H](O)[C@@H]1O [Compound 16, ((2R,3S,4R,5R)-5-(4-aminopyrrolo[2,1-f][1,2,4]triazin-7-yl)-5-cyano-3,4-dihydroxytetrahydrofuran-2-yl)methyl 3-methylbutanoate]	6.66	–	> 10	6.24	5.91	–
N#C[C@@]1(c2ccc3c(N)ncnn23)O[C@H](COC(=O)C2CCCCC2)[C@@H](O)[C@H]1O [Compound 17, ((2R,3S,4R,5R)-5-(4-aminopyrrolo[2,1-f][1,2,4]triazin-7-yl)-5-cyano-3,4-dihydroxytetrahydrofuran-2-yl)methyl cyclohexanecarboxylate]	6.67	6.10	> 10	5.93	–	–
CCCC(CCC)C(=O)OC[C@H]1O[C@@](C#N)(c2ccc3c(N)ncnn23)[C@H](O)[C@@H]1O [Compound 18, ((2R,3S,4R,5R)-5-(4-aminopyrrolo[2,1-f][1,2,4]triazin-7-yl)-5-cyano-3,4-dihydroxytetrahydrofuran-2-yl)methyl 2-propylpentanoate]	6.76	–	> 10	6.65	6.03	–
CCC(CC)C(=O)OC[C@H]1O[C@@](C#N)(c2ccc3c(N)ncnn23)[C@H](O)[C@@H]1O [Compound 19, ((2R,3S,4R,5R)-5-(4-aminopyrrolo[2,1-f][1,2,4]triazin-7-yl)-5-cyano-3,4-dihydroxytetrahydrofuran-2-yl)methyl 2-ethylbutanoate]	6.62	5.84	> 10	6.58	–	–
CCCCCCCC(=O)OC[C@H]1O[C@@](C#N)(c2ccc3c(N)ncnn23)[C@H](O)[C@@H]1O [Compound 20, ((2R,3S,4R,5R)-5-(4-aminopyrrolo[2,1-f][1,2,4]triazin-7-yl)-5-cyano-3,4-dihydroxytetrahydrofuran-2-yl)methyl octanoate]	6.57	6.21	> 10	6.08	–	–
CC(C)(C)CC(=O)OC[C@H]1O[C@@](C#N)(c2ccc3c(N)ncnn23)[C@H](O)[C@@H]1O [Compound 21, ((2R,3S,4R,5R)-5-(4-aminopyrrolo[2,1-f][1,2,4]triazin-7-yl)-5-cyano-3,4-dihydroxytetrahydrofuran-2-yl)methyl 3,3-dimethylbutanoate]	5.64	4.94	> 10	5.73	–	–
N#C[C@@]1(c2ccc3c(N)ncnn23)O[C@H](COC(=O)Cc2ccccc2)[C@@H](O)[C@H]1O [Compound 22, ((2R,3S,4R,5R)-5-(4-aminopyrrolo[2,1-f][1,2,4]triazin-7-yl)-5-cyano-3,4-dihydroxytetrahydrofuran-2-yl)methyl 2-phenylacetate]	6.66	6.07	–	6.10	–	> 10
Cc1ccc(C(=O)OC[C@H]2O[C@@](C#N)(c3ccc4c(N)ncnn34)[C@H](O)[C@@H]2O)cc1 [Compound 23, ((2R,3S,4R,5R)-5-(4-aminopyrrolo[2,1-f][1,2,4]triazin-7-yl)-5-cyano-3,4-dihydroxytetrahydrofuran-2-yl)methyl 4-methylbenzoate]	6.71	5.96	> 10	6.60	–	–
N#C[C@@]1(c2ccc3c(N)ncnn23)O[C@H](COC(=O)C2CC3CCCC3C2)[C@@H](O)[C@H]1O (stereo partly drawn) [Compound 24, ((2R,3S,4R,5R)-5-(4-aminopyrrolo[2,1-f][1,2,4]triazin-7-yl)-5-cyano-3,4-dihydroxytetrahydrofuran-2-yl)methyl octahydropentalene-2-carboxylate]	6.73	6.10	> 10	6.10	–	–
